Measurements: the CheMixHub viscosity set
± gives the uncertainty stated by the source.

Assay: xn = mol fraction of the nth substance listed

CCCCN + CC(C)(C)O
viscosity [mPa·s], 101 kPa
Conditions	x2 = 0.1	x2 = 0.2004	x2 = 0.2999	x2 = 0.4	x2 = 0.4996	x2 = 0.6	x2 = 0.7	x2 = 0.8	x2 = 0.9004	x2 = 0.95
303.15 K	0.5062 ± 0.0065	0.5833 ± 0.0074	0.681 ± 0.0085	0.804 ± 0.01	0.9662 ± 0.012	1.177 ± 0.014	1.466 ± 0.018	1.866 ± 0.023	2.458 ± 0.03	2.869 ± 0.035
308.15 K	0.4732 ± 0.0061	0.541 ± 0.0069	0.6257 ± 0.0079	0.733 ± 0.0091	0.8694 ± 0.011	1.046 ± 0.013	1.279 ± 0.016	1.591 ± 0.019	2.021 ± 0.025	2.3 ± 0.028
313.15 K	0.4425 ± 0.0057	0.5022 ± 0.0064	0.5783 ± 0.0073	0.6716 ± 0.0084	0.7865 ± 0.0097	0.9346 ± 0.011	1.119 ± 0.014	1.363 ± 0.017	1.68 ± 0.021	1.874 ± 0.023
318.15 K	0.4156 ± 0.0054	0.4687 ± 0.006	0.5345 ± 0.0068	0.6159 ± 0.0077	0.7149 ± 0.0089	0.8377 ± 0.01	0.9897 ± 0.012	1.183 ± 0.014	1.417 ± 0.017	1.553 ± 0.019
323.15 K	0.3905 ± 0.0051	0.4378 ± 0.0056	0.4957 ± 0.0063	0.5666 ± 0.0071	0.6519 ± 0.0081	0.7551 ± 0.0093	0.8801 ± 0.011	1.031 ± 0.013	1.21 ± 0.015	1.309 ± 0.016

CCCCN + ClC(Cl)(Cl)Cl
viscosity [mPa·s], 101 kPa
Conditions	293.15 K	298.15 K	303.15 K	308.15 K
x1 = 0.1017	0.924 ± 0.024	0.86 ± 0.023	0.806 ± 0.021	0.76 ± 0.02
x1 = 0.1975	0.879 ± 0.023	0.818 ± 0.022	0.766 ± 0.02	0.723 ± 0.019
x1 = 0.2974	0.832 ± 0.022	0.774 ± 0.02	0.726 ± 0.019	0.684 ± 0.018
x1 = 0.3676	0.799 ± 0.021	0.743 ± 0.02	0.697 ± 0.019	0.657 ± 0.018
x1 = 0.4895	0.742 ± 0.02	0.69 ± 0.018	0.647 ± 0.017	0.61 ± 0.016
x1 = 0.5536	0.712 ± 0.019	0.661 ± 0.018	0.621 ± 0.017	0.585 ± 0.016
x1 = 0.6318	0.675 ± 0.018	0.627 ± 0.017	0.589 ± 0.016	0.555 ± 0.015
x1 = 0.6708	0.657 ± 0.018	0.61 ± 0.016	0.573 ± 0.016	0.54 ± 0.015
x1 = 0.7779	0.606 ± 0.016	0.563 ± 0.015	0.53 ± 0.015	0.499 ± 0.014
x1 = 0.8299	0.582 ± 0.016	0.54 ± 0.015	0.508 ± 0.014	0.479 ± 0.013
x1 = 0.912	0.543 ± 0.015	0.504 ± 0.014	0.475 ± 0.013	0.447 ± 0.013

Cc1ccncc1 + CO
298.15 K, 101.33 kPa
Conditions	viscosity [mPa·s]
x2 = 0.1671	0.8666 ± 0.01
x2 = 0.3035	0.8547 ± 0.0096
x2 = 0.4194	0.8291 ± 0.0089
x2 = 0.5171	0.8161 ± 0.0084
x2 = 0.6328	0.7764 ± 0.0076
x2 = 0.7977	0.7033 ± 0.0066
x2 = 0.8892	0.6526 ± 0.006
x2 = 0.967	0.5799 ± 0.0053

CCCCN + C1CCCCC1
viscosity [mPa·s], 101 kPa
Conditions	303.15 K	313.15 K
x1 = 0.00966	0.8095 ± 0.0056	0.7083 ± 0.005
x1 = 0.01973	0.8005 ± 0.0055	0.6998 ± 0.005
x1 = 0.02822	0.7907 ± 0.0055	0.6925 ± 0.0049
x1 = 0.03804	0.7823 ± 0.0054	0.6831 ± 0.0049
x1 = 0.04713	0.7702 ± 0.0053	0.6749 ± 0.0049
x1 = 0.05811	0.758 ± 0.0053	0.6646 ± 0.0048
x1 = 0.0674	0.7469 ± 0.0052	0.6553 ± 0.0048
x1 = 0.07236	0.7374 ± 0.0052	0.6487 ± 0.0047
x1 = 0.08731	0.7267 ± 0.0051	0.637 ± 0.0047
x2 = 0.1009	0.453 ± 0.009	–
x2 = 0.2007	0.467 ± 0.009	–
x2 = 0.3012	0.492 ± 0.01	–
x2 = 0.3987	0.501 ± 0.01	–
x2 = 0.4982	0.529 ± 0.011	–
x2 = 0.5729	0.553 ± 0.011	–
x2 = 0.7003	0.601 ± 0.012	–
x2 = 0.7863	0.652 ± 0.013	–
x2 = 0.8993	0.725 ± 0.015	–

CCCCN + CCC(C)=O
303.15 K, 101.33 kPa
Conditions	viscosity [mPa·s]
x1 = 0.0943	0.482 ± 0.013
x1 = 0.181	0.593 ± 0.016
x1 = 0.2823	0.732 ± 0.02
x1 = 0.4616	0.924 ± 0.025
x1 = 0.5768	0.967 ± 0.027
x1 = 0.674	0.914 ± 0.025
x1 = 0.7814	0.819 ± 0.023
x1 = 0.891	0.671 ± 0.019

O=C(O)[C@H](O)[C@@H](O)C(=O)O + C[N+](C)(C)CCO.[Cl-]
viscosity [mPa·s]
Conditions	303 K	313 K	313.2 K	323 K
101 kPa, x2 = 0.5	1281000 ± 340000	240000 ± 54000	–	73300 ± 14000
101.3 kPa, x2 = 0.669	–	–	6790 ± 1400	–

Cc1ccncc1 + O
Conditions	viscosity [mPa·s]
318.15 K, 101 kPa, x1 = 0.4	1.365 ± 0.013

CCCCN + CCCCCO
viscosity [mPa·s], 101.33 kPa
Conditions	303.15 K	313.15 K	323.15 K
x1 = 0.097	2.5 ± 0.019	2.042 ± 0.016	–
x1 = 0.102	2.52 ± 0.023	1.956 ± 0.018	1.551 ± 0.014
x1 = 0.1887	2.182 ± 0.017	1.761 ± 0.014	–
x1 = 0.2002	2.086 ± 0.019	1.639 ± 0.015	1.322 ± 0.012
x1 = 0.2883	1.842 ± 0.014	1.49 ± 0.012	–
x1 = 0.2994	1.72 ± 0.016	1.381 ± 0.013	1.122 ± 0.011
x1 = 0.388	1.53 ± 0.012	1.264 ± 0.01	–
x1 = 0.4012	1.431 ± 0.013	1.162 ± 0.011	0.957 ± 0.009
x1 = 0.5	1.19 ± 0.011	0.976 ± 0.009	0.816 ± 0.008
x1 = 0.5146	1.18 ± 0.0094	0.9969 ± 0.0081	–
x1 = 0.6008	0.996 ± 0.009	0.829 ± 0.008	0.697 ± 0.007
x1 = 0.6173	0.9476 ± 0.0077	0.8283 ± 0.0069	–
x1 = 0.6995	0.819 ± 0.008	0.693 ± 0.007	0.592 ± 0.006
x1 = 0.7066	0.7962 ± 0.0066	0.6999 ± 0.0059	–
x1 = 0.8002	0.68 ± 0.007	0.583 ± 0.006	0.505 ± 0.005
x1 = 0.8075	0.6516 ± 0.0056	0.5757 ± 0.005	–
x1 = 0.8845	0.559 ± 0.0049	0.4945 ± 0.0045	–
x1 = 0.8997	0.574 ± 0.006	0.498 ± 0.005	0.435 ± 0.005

CCC(C)(C)C + CCCCCCCCCCCC
298 K, 101.33 kPa
Conditions	viscosity [mPa·s]
x1 = 0.0995	1.264 ± 0.017
x1 = 0.2015	1.152 ± 0.015
x1 = 0.2997	1.056 ± 0.014
x1 = 0.3975	0.944 ± 0.013
x1 = 0.5013	0.8256 ± 0.011
x1 = 0.6011	0.7202 ± 0.01
x1 = 0.7	0.6152 ± 0.0088
x1 = 0.7997	0.5206 ± 0.0077
x1 = 0.9002	0.4256 ± 0.0066

CCCC(=O)OCC + C1CCCCC1
viscosity [mPa·s], 101 kPa
Conditions	298.15 K	308.15 K
x1 = 0.0551	0.852 ± 0.086	0.72 ± 0.072
x1 = 0.1552	0.796 ± 0.08	0.667 ± 0.067
x1 = 0.2554	0.75 ± 0.075	0.626 ± 0.063
x1 = 0.3554	0.711 ± 0.071	0.594 ± 0.06
x1 = 0.4504	0.682 ± 0.068	0.573 ± 0.058
x1 = 0.4992	0.669 ± 0.067	0.564 ± 0.057
x1 = 0.5558	0.656 ± 0.066	0.557 ± 0.056
x1 = 0.6532	0.638 ± 0.064	0.549 ± 0.055
x1 = 0.7547	0.624 ± 0.063	0.548 ± 0.055
x1 = 0.8532	0.616 ± 0.062	0.554 ± 0.056
x1 = 0.9564	0.613 ± 0.061	0.568 ± 0.057
